SMILES strings stand for the structures.

The target in one experiment is T1, E. coli DdlB enzyme (D-alanine:D-alanine ligase) (Escherichia coli, UniProt P07862).
T1 construct: made in house; host or cells: E. coli
As to the kind of experiment: biochemical. The following applies: residual activity of DdlB, fragment library screening, tested concentration 2.9 mM; read-out: DdlB RA.
In the case of `COCc1cn(C2CNC2)nn1` [Compound S727-0003], the remaining activity at 2900 µM is 7.54%.

The same experiment, now with this note: residual activity of DdlB, fragment library screening, tested concentration 3.2 mM; read-out: DdlB RA.
With `C#CC(=O)NC(C)c1ccc(C)cc1` (centres unmarked) [Compound T001-1588], the remaining activity at 3200 µM is 93%.

Staying with this experiment, now noted: residual activity of DdlB, fragment library screening, tested concentration 3.6 mM; read-out: DdlB RA.
Regarding `O=C1CCn2ncnc2N1` [Compound Y021-0743], the remaining activity at 3600 µM turned out to be 98%.

The same experiment, now with this note: residual activity; tested concentration 1.7 mM; read-out: DdlB RA.
As to `Cc1ccc(CNC(=O)C2Cn3cccc3C(=O)N2C)o1` (centres unmarked) [Compound S531-0187], the remaining activity at 1700 µM came to 92%.
Turning to `CCc1ccc(C(=O)N2CCC(C3CCNC3)CC2)cc1` (centres unmarked) [Compound S632-2763], the remaining activity at 1700 µM stood at 69%.
On the same count and under the same terms, in the case of `CCc1nnc(C2CCCN(C(=O)C3CCCCC3)C2)[nH]1` (centres unmarked) [Compound T629-1509] it was 71%.
Take `O=C(Nc1ccc(Cl)cc1)Nc1ccccc1C(=O)O` [Compound Y020-0051]: the remaining activity at 1700 µM worked out at 119%.

The experiment is the same for the next values; noted with them: residual activity; tested concentration 1.8 mM; read-out: DdlB RA.
As to `O=C(c1n[nH]c2ccccc12)N1C[C@H]2CCC[C@@H](O)[C@H]2C1` [Compound S890-0272], the remaining activity at 1800 µM was 95%.
`O=S(=O)(c1cccnc1)N1CCC2(CCC2O)CC1` (centres unmarked) [Compound S971-1046]: the remaining activity at 1800 µM turned out to be 89%.
On the same count and under the same terms, in the case of `CCCNC(=O)N1CCC(F)(C(=O)NC2CC2)CC1` [Compound T502-0828] it was 97%.
On the same count and under the same terms, in the case of `O=C(C1CCC1)N1CCC(F)(C(=O)N2CCCC2)CC1` [Compound T502-1244] it was 97%.
Same read-out and setting: in the case of `Cc1ccccc1C(=O)N1CCCN(C)c2ccccc21` [Compound T599-3543] it was 72%.

Still in this experiment, the particulars now being: residual activity; tested concentration 1.9 mM; read-out: DdlB RA.
Consider `COc1cccc(CNC(=O)C2CCCCC(=O)N2C)c1` (centres unmarked) [Compound S513-0092], for which the remaining activity at 1900 µM worked out at 97%.
In the case of `O=C1CS(=O)(=O)C2(CCNCC2)N1c1ccccc1` [Compound T140-0972], the remaining activity at 1900 µM was 93%.
The same measure, in the same setting: in the case of `Cc1nnc(C2CCN(C(=O)c3ccco3)CC2)[nH]1` [Compound T630-1922] it was 58%.

The same experiment, now with this note: residual activity; tested concentration 2.0 mM; read-out: DdlB RA.
Take `CCCNC(=O)N1CCC2(CCC(=O)N(C)CC2)CC1` [Compound S509-1557]: the remaining activity at 2000 µM was 98%.
The same measure, in the same setting: in the case of `CC1CN(S(=O)(=O)c2ccc(F)cc2)CC(C)O1` (centres unmarked) [Compound Y030-1235] it was 93%.

Still in this experiment, the particulars now being: residual activity; tested concentration 2.1 mM; read-out: DdlB RA.
On to `CC(C(=O)NCc1cc(F)cc(F)c1)C1CCOCC1` (centres unmarked) [Compound S424-0231], for which the remaining activity at 2100 µM came out at 92%.
On the same count and under the same terms, with `CCC(=O)N1CCC(c2nc(C3CCOCC3)no2)C1` (centres unmarked) [Compound S428-0464] the figure was 95%.
Still for that read-out and setting: with `CCC1(C(=O)NC2CCCCCC2)CCCCC(=O)N1` (centres unmarked) [Compound S515-0307] the figure was 99%; with `O=C1CCC2(CNC(=O)C3CCOCC3)CCCC=C2N1` (centres unmarked) [Compound S570-0163], 94%; with `Cc1noc(C)c1C(=O)NCC1Cn2cccc2CN1C` (centres unmarked) [Compound S590-0019], 45%.
As to `Cc1ncoc1C(=O)N1CCCC(n2c(C)cnc2C)C1` (centres unmarked) [Compound S692-1464], the remaining activity at 2100 µM amounted to 96%.
Same read-out and setting: with `Cc1noc(C)c1S(=O)(=O)N1CC(n2ccnc2)C1` [Compound S695-2555] the figure was 97%.
Still for that read-out and setting: in the case of `O=C1CCC2(CCN(S(=O)(=O)c3ccccc3)C2)N1` (centres unmarked) [Compound S914-0001] it was 101%.
Still for that read-out and setting: with `CCS(=O)(=O)N1CCc2[nH]c(-c3ccccc3)nc2C1` [Compound T147-0013] the figure was 81%.
Take `CCn1cnnc1CC1CCCN(C(=O)c2ccco2)C1` (centres unmarked) [Compound T501-0329]: the remaining activity at 2100 µM is 69%.
In the case of `CCS(=O)(=O)N1CCC(F)(C(=O)N2CCCC2)CC1` [Compound T502-1464], the remaining activity at 2100 µM was 83%.
The same measure, in the same setting: in the case of `CC(O)C1CCN(Cc2ccc(Br)o2)CC1` (centres unmarked) [Compound T786-0030] it was 94%.
On to `CC1CCN(C(=O)C2N(C(C)C)C(=O)C23CCCC3)CC1` (centres unmarked) [Compound T964-0245], for which the remaining activity at 2100 µM was 95%.
As to `O=C1C(O)C2(CCCCC2)N1C1CCNCC1` (centres unmarked) [Compound T965-0058], the remaining activity at 2100 µM turned out to be 90%.

The experiment is the same for the next values; noted with them: residual activity; tested concentration 2.2 mM; read-out: DdlB RA.
Regarding `NC(=O)CN1C(=O)C2(CCCCC2)C1c1ccccc1` (centres unmarked) [Compound S642-0104], the remaining activity at 2200 µM amounted to 96%.
The same measure, in the same setting: with `O=C(c1ccoc1)N1C[C@@H](CO)[C@H](c2ccncc2)C1` [Compound S824-2534] the figure was 95%; with `Cc1cccnc1C(=O)N1CCC2(CC1)CCC2(C)O` (centres unmarked) [Compound S971-1225], 97%.
The same measure, in the same setting: in the case of `CCNC(=O)N1CCC(F)(C(=O)N2CCCC2)CC1` [Compound T502-1430] it was 89%.

Still in this experiment, the particulars now being: residual activity; tested concentration 2.3 mM; read-out: DdlB RA.
With `CC(C)C(=O)N1CC(n2cc(C(=O)N(C)C)nn2)C1` [Compound S724-0111], the remaining activity at 2300 µM amounted to 97%.
Take `CC1CC(C)(C)Nc2c(C(=O)O)cccc21` (centres unmarked) [Compound Y021-0767]: the remaining activity at 2300 µM was 97%.
Still for that read-out and setting: in the case of `CC1=CC(C)(C)Nc2c(C(=O)O)cccc21` [Compound Y021-0768] it was 105%.

The same experiment, now with this note: tested concentration 1.7 mM; read-out: DdlB RA.
For `Cc1nc(N2CCC(C(=O)O)CC2)cc(C(F)(F)F)n1` [Compound S553-0322], the remaining activity at 1700 µM turned out to be 105%.
On the same count and under the same terms, with `O=C(c1ccccc1)N1CCC(c2nnc(C3CC3)[nH]2)CC1` [Compound T630-2594] the figure was 91%; with `Cc1cccc(C2SC(C)C(=O)N2CC(=O)N(C)C)c1` (centres unmarked) [Compound V017-7801], 98%; with `CNC(=O)CCN1C(=O)CSC1c1ccccc1Cl` (centres unmarked) [Compound V026-8598], 109%.

The experiment is the same for the next values; noted with them: tested concentration 1.9 mM; read-out: DdlB RA.
Turning to `COCC1CN(C(C)=O)CC12CCNCC2` (centres unmarked) [Compound S635-3083], the remaining activity at 1900 µM was 93%.
Same read-out and setting: in the case of `CCn1nccc1C(=O)N1CC(n2ccnc2C)C1` [Compound S695-2086] it was 95%; in that of `CNCCN1C(=O)C(C)SC1c1ccccc1C` (centres unmarked) [Compound V007-8918], 72%.
The same measure, in the same setting: in the case of `CNC(=O)CN1C(=O)CSC1c1ccc(F)cc1` (centres unmarked) [Compound V022-4411] it was 92%.

Still in this experiment, the particulars now being: tested concentration 2.0 mM; read-out: DdlB RA.
Turning to `CCC(=O)N1CCC(CC(=O)N2CCOCC2)C1` (centres unmarked) [Compound S421-0882], the remaining activity at 2000 µM stood at 70%.
Consider `CCOc1ccc2c(n1)CCN(C(=O)C1CC1)C2` [Compound S422-0032], for which the remaining activity at 2000 µM turned out to be 97%.
Same read-out and setting: in the case of `CC(C)C(=O)N1CCC2(CCNC(=O)CC2)CC1` [Compound S509-1270] it was 93%.
Same read-out and setting: with `CCn1cnnc1-c1nn(C)c2c1CNCC2` [Compound S565-0571] the figure was 89%; with `CCS(=O)(=O)N1CCC2(CCC2OC)CC1` (centres unmarked) [Compound S664-0247], 92%.

Still in this experiment, the particulars now being: tested concentration 2.1 mM; read-out: DdlB RA.
Regarding `Cc1c(C(=O)O)nnn1-c1ccc2c(c1)CCC2` [Compound T640-0079], the remaining activity at 2100 µM is 92%.

The experiment is the same for the next values; noted with them: tested concentration 2.2 mM; read-out: DdlB RA.
Turning to `CN1CCC2(CC1)CNCc1ccccc1O2` [Compound S530-0066], the remaining activity at 2200 µM amounted to 94%.
Still for that read-out and setting: with `CC(=O)NCC1CNCC12CCCCC2` (centres unmarked) [Compound S855-0002] the figure was 85%.

Still in this experiment, the particulars now being: tested concentration 2.3 mM; read-out: DdlB RA.
Turning to `CCCn1c(C)cnc1C1CCNC1` (centres unmarked) [Compound T158-0004], the remaining activity at 2300 µM turned out to be 86%.
With `Cc1ccc(F)c(-n2cc(C(=O)O)nn2)c1` [Compound T640-0432], the remaining activity at 2300 µM was found to be 100%.
The same measure, in the same setting: in the case of `CC(O)C1CCN(Cc2ccncc2)CC1` (centres unmarked) [Compound T786-0016] it was 65%; in that of `Cc1cc(O)n(C2CCS(=O)(=O)C2)n1` (centres unmarked) [Compound Y020-9160], 99%.

Still in this experiment, the particulars now being: tested concentration 2.4 mM; read-out: DdlB RA.
With `C#CC(=O)NC(C)c1c(C)nn(C)c1C` (centres unmarked) [Compound T001-1381], the remaining activity at 2400 µM was found to be 87%.
Still for that read-out and setting: in the case of `CCNC(=O)N1CCCN(C)c2ccccc21` [Compound T599-3176] it was 96%; in that of `CC(C)N1C(=O)C2(CCCC2)C1C(=O)O` (centres unmarked) [Compound T964-0325], 92%.
The same measure, in the same setting: in the case of `CC(=O)c1cc2c(cc1C)NC(C)(C)CC2C` (centres unmarked) [Compound Y021-0953] it was 97%.
Same read-out and setting: in the case of `CC1CCCN(S(=O)(=O)Cc2ccccc2)C1` (centres unmarked) [Compound Y030-1494] it was 79%.

The experiment is the same for the next values; noted with them: tested concentration 2.5 mM; read-out: DdlB RA.
In the case of `CC1(O)CCC12CCN(C(=O)CC1CC1)CC2` (centres unmarked) [Compound S971-1224], the remaining activity at 2500 µM was 75%.

The experiment is the same for the next values; noted with them: tested concentration 2.6 mM; read-out: DdlB RA.
Regarding `Cc1cnc(C)n1CCNC(=O)C1CC=CC1` [Compound S751-1890], the remaining activity at 2600 µM was 98%.

Still in this experiment, the particulars now being: tested concentration 2.7 mM; read-out: DdlB RA.
With `CN1CCCCC(CC(=O)O)C1=O` (centres unmarked) [Compound S581-1125], the remaining activity at 2700 µM worked out at 95%.
In the case of `CC1=CC(C)(C)N(C)c2cc(O)ccc21` [Compound Y021-0895], the remaining activity at 2700 µM is 88%.

The experiment is the same for the next values; noted with them: tested concentration 2.8 mM; read-out: DdlB RA.
With `O=C1NC(C(=O)O)Cn2cccc21` (centres unmarked) [Compound S531-0139], the remaining activity at 2800 µM came out at 90%.
Regarding `C#CC(=O)NCc1ccc(F)cc1F` [Compound T001-0851], the remaining activity at 2800 µM was determined as 93%.
As for `CC(C)NS(=O)(=O)c1ccc(F)cc1` [Compound Y030-0983], the remaining activity at 2800 µM was determined as 94%.

The experiment is the same for the next values; noted with them: tested concentration 2.9 mM; read-out: DdlB RA.
With `CC(C)(C(=O)O)C1CCOCC1` [Compound S424-0502], the remaining activity at 2900 µM amounted to 98%.
On the same count and under the same terms, with `CC1(C(=O)O)CCCCC(=O)N1` (centres unmarked) [Compound S515-0278] the figure was 93%; with `CC#CC(=O)NCc1cc(F)ccc1F` [Compound T001-0919], 89%.
Same read-out and setting: in the case of `CC#CC(=O)N(C)CCc1cn[nH]c1` [Compound T001-1282] it was 86%.
